#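 Cells were grown in 96-well plates and exposed to each compound for 48 hours at five concentrations; endpoints were interpolated linearly between bracketing concentrations, or set to the highest concentration if not reached. GI50 = concentration required for 50% inhibition of growth.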 Activity calls are given as the source filed them. Cut-off read from the data, not from the text of the source: active = GI50 up to about 1.1 µM and inactive = higher.
# Legend:
# Test in all cases: NCI anticancer screen, dose series, 48 h
# A498 = test system: A498
# ACHN = test system: ACHN
# CAKI-1 = test system: CAKI-1
# HL-60 = test system: HL-60
# HOP-92 = test system: HOP-92
# Hs-578T = test system: Hs-578T
# IGROV-1 = test system: IGROV-1
# KM12 = test system: KM12
# MDA-MB-231 = test system: MDA-MB-231
# MOLT-4 = test system: MOLT-4
# NCI-H23 = test system: NCI-H23
# NCI-H460 = test system: NCI-H460
# OVCAR-5 = test system: OVCAR-5
# RPMI-8226 = test system: RPMI-8226
# RXF 393 = test system: RXF 393
# SR = test system: SR
# SW-620 = test system: SW-620
# T47D = test system: T47D
# TK-10 = test system: TK-10
# U-251 = test system: U-251
Structure (SMILES),GI50 (A498),GI50 (ACHN),GI50 (CAKI-1),GI50 (HL-60),GI50 (HOP-92),GI50 (Hs-578T),GI50 (IGROV-1),GI50 (KM12),GI50 (MDA-MB-231),GI50 (MOLT-4),GI50 (NCI-H23),GI50 (NCI-H460),GI50 (OVCAR-5),GI50 (RPMI-8226),GI50 (RXF 393),GI50 (SR),GI50 (SW-620),GI50 (T47D),GI50 (TK-10),GI50 (U-251)
Brc1ccc2c(-c3nc(-c4c[nH]c5ccc(Br)cc45)cs3)c[nH]c2c1,2.41 µM (inactive),1.67 µM (inactive),4.03 µM (inactive),6.43 µM (inactive),3.44 µM (inactive),7.21 µM (inactive),2.99 µM (inactive),2.62 µM (inactive),3.69 µM (inactive),2.46 µM (inactive),3.24 µM (inactive),2.68 µM (inactive),2.96 µM (inactive),3.43 µM (inactive),4.45 µM (inactive),3.15 µM (inactive),4.61 µM (inactive),4.86 µM (inactive),5.51 µM (inactive),4.43 µM (inactive)
CCCCC(=O)OC[n+]1ccc2c(C)c3[nH]c4ccc(OC)cc4c3c(C)c2c1,0.923 µM (active),0.0938 µM (active),1.02 µM (active),0.422 µM (active),1.23 µM (inactive),1.07 µM (active),0.284 µM (active),0.412 µM (active),0.185 µM (active),0.0396 µM (active),0.536 µM (active),0.0736 µM (active),1.67 µM (inactive),0.0675 µM (active),0.929 µM (active),0.0506 µM (active),0.14 µM (active),1.03 µM (active),2.64 µM (inactive),0.348 µM (active)
CC(C)(C)C(O)CC(O)(C(F)(F)F)C(F)(F)F (stereo not given),> 100 µM (inactive),> 100 µM (inactive),> 100 µM (inactive),> 100 µM (inactive),> 100 µM (inactive),> 100 µM (inactive),> 100 µM (inactive),> 100 µM (inactive),> 100 µM (inactive),> 100 µM (inactive),> 100 µM (inactive),> 100 µM (inactive),> 100 µM (inactive),> 100 µM (inactive),> 100 µM (inactive),> 100 µM (inactive),> 100 µM (inactive),> 100 µM (inactive),> 100 µM (inactive),> 100 µM (inactive)
COc1cccc(C2c3cc4c(cc3OC(N3CCCC3)C2C)OCO4)c1O (stereo not given),4.89 µM (inactive),6.59 µM (inactive),6.32 µM (inactive),11.3 µM (inactive),7.82 µM (inactive),3.04 µM (inactive),7.14 µM (inactive),3.03 µM (inactive),8.02 µM (inactive),6.7 µM (inactive),4.08 µM (inactive),4.6 µM (inactive),11.3 µM (inactive),4.23 µM (inactive),3.58 µM (inactive),4.38 µM (inactive),3.74 µM (inactive),9.95 µM (inactive),3.99 µM (inactive),3.49 µM (inactive)
O=C1OCOC2(CCCC2)C1c1ccccc1 (stereo not given),> 100 µM (inactive),> 100 µM (inactive),> 100 µM (inactive),> 100 µM (inactive),> 100 µM (inactive),> 100 µM (inactive),> 100 µM (inactive),> 100 µM (inactive),> 100 µM (inactive),> 100 µM (inactive),> 100 µM (inactive),> 100 µM (inactive),> 100 µM (inactive),> 100 µM (inactive),> 100 µM (inactive),> 100 µM (inactive),> 100 µM (inactive),> 100 µM (inactive),> 100 µM (inactive),> 100 µM (inactive)
Cc1ccc(-c2ccc3c(c2)Sc2ccccc2O3)n1C,0.416 µM (active),3.57 µM (inactive),0.303 µM (active),0.125 µM (active),19.8 µM (inactive),0.604 µM (active),0.232 µM (active),0.257 µM (active),1.19 µM (inactive),0.822 µM (active),0.908 µM (active),0.327 µM (active),0.809 µM (active),0.179 µM (active),0.283 µM (active),0.0675 µM (active),0.264 µM (active),> 100 µM (inactive),0.627 µM (active),0.329 µM (active)
O=C(O)C#Cc1ccc([N+](=O)[O-])cc1,> 100 µM (inactive),> 100 µM (inactive),> 100 µM (inactive),> 100 µM (inactive),> 100 µM (inactive),> 100 µM (inactive),> 100 µM (inactive),> 100 µM (inactive),> 100 µM (inactive),> 100 µM (inactive),> 100 µM (inactive),> 100 µM (inactive),> 100 µM (inactive),> 100 µM (inactive),> 100 µM (inactive),> 100 µM (inactive),> 100 µM (inactive),> 100 µM (inactive),> 100 µM (inactive),> 100 µM (inactive)
CO[C@@H]1C=C[C@@]23c4cc5c(cc4C(O)N(CC2O)C3C1)OCO5 (stereo not given in full),3.15 µM (inactive),3.33 µM (inactive),3.58 µM (inactive),1.8 µM (inactive),3.09 µM (inactive),22.6 µM (inactive),3.78 µM (inactive),2.62 µM (inactive),3.87 µM (inactive),2.82 µM (inactive),4.29 µM (inactive),2.84 µM (inactive),4.91 µM (inactive),4.18 µM (inactive),5.62 µM (inactive),4 µM (inactive),4.33 µM (inactive),3.35 µM (inactive),4.19 µM (inactive),3.61 µM (inactive)
CC(=O)OCCOCn1cc(C=O)c2ccccc21,1.95 µM (inactive),> 100 µM (inactive),> 100 µM (inactive),> 100 µM (inactive),> 100 µM (inactive),> 100 µM (inactive),> 100 µM (inactive),> 100 µM (inactive),> 100 µM (inactive),> 100 µM (inactive),> 100 µM (inactive),33.2 µM (inactive),67.5 µM (inactive),> 100 µM (inactive),> 100 µM (inactive),> 100 µM (inactive),> 100 µM (inactive),> 100 µM (inactive),> 100 µM (inactive),> 100 µM (inactive)
COC(=O)c1ccc(NCc2cc(O)c3ccccc3c2O)cc1,19.8 µM (inactive),10.8 µM (inactive),6.17 µM (inactive),3.3 µM (inactive),2.55 µM (inactive),37.7 µM (inactive),11.4 µM (inactive),14.8 µM (inactive),2.17 µM (inactive),2.81 µM (inactive),6.65 µM (inactive),7.31 µM (inactive),21.6 µM (inactive),3.45 µM (inactive),16.3 µM (inactive),4.54 µM (inactive),12.9 µM (inactive),5.12 µM (inactive),24.4 µM (inactive),16.7 µM (inactive)
O=C(O)c1ccc(/C=N/N=C2c3ccccc3-c3ccccc32)cc1,> 100 µM (inactive),48.3 µM (inactive),38.6 µM (inactive),32.9 µM (inactive),40.6 µM (inactive),13.7 µM (inactive),54.8 µM (inactive),35.2 µM (inactive),> 100 µM (inactive),38.6 µM (inactive),53.8 µM (inactive),41.2 µM (inactive),50.2 µM (inactive),63.7 µM (inactive),89.9 µM (inactive),30.4 µM (inactive),36.1 µM (inactive),64 µM (inactive),66.1 µM (inactive),37.4 µM (inactive)
C=CC(=O)c1ccc2c(c1)OCCOCCOCCOCCOCCO2,> 100 µM (inactive),17.7 µM (inactive),34.4 µM (inactive),> 58.6 µM (inactive),17 µM (inactive),> 100 µM (inactive),> 100 µM (inactive),> 100 µM (inactive),21.3 µM (inactive),38.1 µM (inactive),> 44.4 µM (inactive),> 100 µM (inactive),33.4 µM (inactive),> 38.8 µM (inactive),17.2 µM (inactive),> 100 µM (inactive),18.8 µM (inactive),29.3 µM (inactive),17 µM (inactive),> 57.5 µM (inactive)
C=C(C)[C@H]1C=C[C@@H](OC(=O)c2cccnc2)[C@@]23CO[C@@](C)([C@H](OC(=O)c4cccnc4)[C@@]4(OC(C)=O)C[C@H](C)[C@H](OCCC)[C@@H]4[C@H]2OC(C)=O)[C@H]13,> 15 µM (inactive),> 15 µM (inactive),> 15 µM (inactive),3.35 µM (inactive),> 15 µM (inactive),13.5 µM (inactive),> 15 µM (inactive),> 15 µM (inactive),> 15 µM (inactive),7.1 µM (inactive),> 15 µM (inactive),4.94 µM (inactive),> 15 µM (inactive),9.95 µM (inactive),> 15 µM (inactive),11.9 µM (inactive),> 15 µM (inactive),> 15 µM (inactive),> 15 µM (inactive),> 15 µM (inactive)
C=C(C)[C@@H]1CC[C@]2(C(=O)O)CC[C@]3(C)[C@H](CC[C@@H]4[C@@]5(C)CC[C@H](O)C(C)(C)[C@@H]5CC[C@]43C)[C@@H]12 [BETULINIC ACID],6.08 µM (inactive),8.28 µM (inactive),11.6 µM (inactive),2.97 µM (inactive),3.27 µM (inactive),10.8 µM (inactive),11.9 µM (inactive),5.93 µM (inactive),3.91 µM (inactive),4.51 µM (inactive),2.58 µM (inactive),7.28 µM (inactive),12.4 µM (inactive),7.36 µM (inactive),2.64 µM (inactive),5.53 µM (inactive),18.2 µM (inactive),7.13 µM (inactive),14.8 µM (inactive),5.53 µM (inactive)
